Experimental data from patent publication US7115608B2, “Pyridinone and pyridinethione derivatives having HIV inhibiting properties” (Centre National de la Recherche Schentifique, priority 2000, dated 2006).
Like-named read-outs stand apart in the source and are kept apart here. Each block holds one molecule with its values, some of them ahead of it.

Columns and labels:
[1] = Cytotoxicity in mock-infected MT-4 cells (MTT); type: cell-based; details: human, mock-infected MT-4 cells, concentration reducing absorbance of mock-infected MT-4 control by 50%
HIV-1 [2] = details: for SI: selectivity index, ratio of CC50 to IC50
Method: (§1) A rapid, sensitive and automated assay procedure was used for the in vitro evaluation of anti-HIV agents. […] Inhibition of the HIV-induced cytopathic effect was used as the end point. The viability of both HIV- and mock-infected cells was assessed spectrophotometrically via the in situ reduction of 3-(4,5-dimethylthiazol-2-yl)-2,5-diphenyltetrazolium bromide (MTT). […] The percent protection achieved by the compound in HIV-infected cells was calculated by the following formula:
(§2) [formula] expressed in %, whereby (ODT)HIV is the optical density measured with a given concentration of the test compound in HIV-infected cells; (ODC)HIV is the optical density measured for the control untreated HIV-infected cells; (ODC)MOCK is the optical density measured for the control untreated mock-infected cells; all optical density values were determined at 540 nm. […] The ratio of CC50 to IC50 was defined as the selectivity index (SI).

HIV-1 [3] = assay: microbe, parasite or virus in culture; details: Human immunodeficiency virus 1, MT4
Method: as §1, §2

mock-infected MT-4 cells = assay: Cytotoxicity in mock-infected MT-4 cells (MTT); type: cell-based; details: concentration reducing absorbance of mock-infected MT-4 control by 50%

SMILES: CCSCc1c(C)[nH]c(=O)c(I)c1Sc1cc(C)cc(C)c1 [compound 45]
CC50 [1]: > 100000 nM | SI (HIV-1 [2]): >31623 | IC50 (HIV-1 [3]): 3.2 nM

SMILES: Cc1cc(C)cc(Sc2c(CN3CCOCC3)c(C)[nH]c(=O)c2I)c1 [compound 43, 4-[(3,5-dimethylphenyl)-thio]-3-iodo-6-methyl-5-morpholinomethyl-1H-pyridin-2-one]
CC50 [1]: 10000 nM | SI (HIV-1 [2]): 10000 | IC50 (HIV-1 [3]): 1 nM

SMILES: C=Cc1c(Oc2cc(C)cc(C)c2)c(CC)c(C)[nH]c1=O [compound 234, 4-(3,5-dimethylphenoxy)-3-ethenyl-5-ethyl-6-methyl-2(1H)-pyridinone]
CC50 [1]: 10000 nM | SI (HIV-1 [2]): 5012 | IC50 (HIV-1 [3]): 2 nM

SMILES: CCOCc1c(C)[nH]c(=O)c(Br)c1Sc1cc(C)cc(C)c1 [compound 85]
CC50 [1]: > 100000 nM | melting point: 183 to 184 °C | SI (HIV-1 [2]): >31623 | IC50 (HIV-1 [3]): 3.2 nM

SMILES: CCOCc1c(C)[nH]c(=O)c(I)c1Sc1cc(C)cc(C)c1 [compound 86]
CC50 [1]: > 100000 nM | melting point: 220 to 222 °C | SI (HIV-1 [2]): >31623 | IC50 (HIV-1 [3]): 3.2 nM

SMILES: CCc1c(C)[nH]c(=O)c(I)c1Oc1cc(Br)cc(/C=C/C#N)c1 [compound 470]
CC50 [1]: 13000 nM | SI (HIV-1 [2]): 12589 | IC50 (HIV-1 [3]): 1 nM

melting point: 158 °C
SMILES: CCc1c(C=O)[nH]c(=O)c(I)c1Oc1cc(C)cc(C)c1 [compound 159, 4-(3,5-dimethylphenoxy)-3-ethyl-1,6-dihydro-5-iodo-6-oxo-2-pyridinecarboxaldehyde]

SMILES: CCc1c(C)[nH]c(=O)c(CC)c1Oc1cc(C)cc(C)c1 [compound 231, 4-(3,5-dimethylphenoxy)-3,5-diethyl-6-methyl-2(1H)-pyridinone]
CC50 [1]: 10000 nM | SI (HIV-1 [2]): 3162 | IC50 (HIV-1 [3]): 3.2 nM

SMILES: CCc1c(CO)[nH]c(=O)c(I)c1Oc1cc(C)cc(C)c1 [compound 133, 4-(3,5-dimethylphenoxy)-5-ethyl-6-(hydroxymethyl)-3-iodo-2(1H)-pyridinone]
CC50 [1]: > 10000 nM | SI (HIV-1 [2]): >6310 | IC50 (HIV-1 [3]): 1.6 nM

SMILES: Cc1cc(C)cc(Oc2c(CCCc3ccccc3)c(C)[nH]c(=O)c2I)c1 [compound 547, 4-(3,5-dimethylphenoxy)-3-iodo-6-methyl-5-(3-phenyl-propyl)-1H-pyridin-2-one]
CC50 [1]: > 100000 nM | SI (HIV-1 [2]): >15849 | IC50 (HIV-1 [3]): 6.3 nM

SMILES: CCOCc1c(C)[nH]c(=O)c(I)c1Oc1cc(C)cc(C)c1 [compound 255, 4-(3,5-dimethylphenoxy)-5-(ethoxymethyl)-3-iodo-6-methyl-2(1H)-pyridinone]
CC50 [1]: > 10000 nM | melting point: 234 to 236 °C | SI (HIV-1 [2]): >15849 | IC50 (HIV-1 [3]): 0.6 nM

SMILES: CCc1c(C)[nH]c(=O)c(I)c1[S+]([O-])c1cc(C)cc(C)c1 (stereo not drawn) [compound 108]
CC50 [1]: 50000 nM | SI (HIV-1 [2]): 19953 | IC50 (HIV-1 [3]): 2.5 nM

melting point: 256 to 258 °C
SMILES: Cc1cc(C)cc(Oc2c(CCl)c(C)[nH]c(=O)c2I)c1 [compound 125, 5-(chloromethyl)-4-(3,5-dimethylphenoxy)-3-iodo-6-methyl-2(1H)-pyridinone]

SMILES: CCc1c(C)[nH]c(=O)c(I)c1Oc1cc(I)cc(CC#N)c1 [compound 426, [3-(5-ethyl-3-iodo-6-methyl-2-oxo-1,2-dihydro-pyridin-4-yloxy)-5-iodo-phenyl]-acetonitrile]
CC50 [1]: 63000 nM | SI (HIV-1 [2]): 39811 | IC50 (HIV-1 [3]): 1.6 nM

SMILES: Cc1cc(C)cc(Oc2c(CO)c(C)[nH]c(=O)c2I)c1 [compound 257, 4-(3,5-dimethylphenoxy)-5-(hydroxymethyl)-3-iodo-6-methyl-2(1H)-pyridinone]
CC50 [1]: > 32000 nM | SI (HIV-1 [2]): >6310 | IC50 (HIV-1 [3]): 5 nM

SMILES: Cc1cc(C)cc(Oc2c(CSCc3csc(C)n3)c(C)[nH]c(=O)c2I)c1 [compound 483, 4-(3,5-dimethylphenoxy)-3-iodo-6-methyl-5-[2-methylthiazol-4-ylmethylsulfanylmethyl)-1H-pyridin-2-one]
CC50 [1]: > 100000 nM | SI (HIV-1 [2]): >100000 | IC50 (HIV-1 [3]): 1 nM

SMILES: COCCOCc1c(C)[nH]c(=O)c(I)c1Oc1cc(C)cc(C)c1 [compound 253]
CC50 (mock-infected MT-4 cells): > 10000 nM | IC50 (HIV-1 [2]; dose achieving 50% protection of HIV-infected MT-4 cells, MTT, OD 540 nm): 1.6 nM | SI (HIV-1 [2]): >6310

melting point: 240 °C
SMILES: Cc1cc(C)cc(Sc2c(CO)c(C)[nH]c(=O)c2I)c1 [compound 61]
